The NIST ThermoML archive (doi:10.1021/acs.jced.7b00429)

Legend:
[1] = 100 kPa, Liquid; for viscosity: Falling or rolling sphere viscometry; for speed of sound: Frequency=3 MHz, Single path-length method; for mass density: Vibrating tube method
[2] = xn = mol fraction of the nth substance listed; settings: 100 kPa, Liquid, x2 = 0; for viscosity: Falling or rolling sphere viscometry; for speed of sound: Frequency=3 MHz, Single path-length method; for mass density: Vibrating tube method

CCn1cc[n+](C)c1.O=S(=O)([O-])C(F)(F)F [1-ethyl-3-methylimidazolium trifluoromethanesulfonate]
[1]
Settings	mass density [kg/m3]	speed of sound [m/s]	viscosity [mPa·s]
298.15 K	1379.91	1436	45.67
303.15 K	1375.71	1425.4	38.31
308.15 K	1371.51	1414.3	32.38
313.15 K	1367.36	1403	27.68
318.15 K	1363.21	1392.7	23.86
323.15 K	1359.07	1381.7	20.75

CC#N [acetonitrile]
[1]
Settings	mass density [kg/m3]	speed of sound [m/s]	viscosity [mPa·s]
298.15 K	776.71	1278.5	0.34
303.15 K	771.29	1258.4	0.32
308.15 K	765.83	1238.2	0.31
313.15 K	760.34	1218	0.3
318.15 K	754.82	1197.9	0.29
323.15 K	749.25	1177.8	0.28

CC#N [acetonitrile] + CCn1cc[n+](C)c1.O=S(=O)([O-])C(F)(F)F
[2]
Settings	mass density [kg/m3]	speed of sound [m/s]	viscosity [mPa·s]
298.15 K	776.71	1278.5	0.34
303.15 K	771.29	1258.4	0.32
308.15 K	765.83	1238.2	0.31
313.15 K	760.34	1218	0.3
318.15 K	754.82	1197.9	0.29
323.15 K	749.25	1177.8	0.28
